Data from US20250074894A1, “NITROPHENYL-ACRYLAMIDES AND USES THEREOF” (BROWN UNIVERSITY, priority 2021, published 2025).

Key:
FTO = FTO (Homo sapiens, UniProt Q9C0B1); assay: FTO activity assay (demethylation of m6A methylated RNA substrate); format: biochemical; conditions: for inhibition at 20 µM: read-out: reduction of FTO activity / FTO activity inhibition
Procedure: An FTO activity assay was performed to determine the inhibitory activity of compounds provided herein towards FTO and compare them with entacapone. This assay measures the ability of FTO to demethylate an m6A methylated RNA substrate. The assay is specific to FTO and is not affected by the function of ALKBH5, which is another RNA demethylase in eukaryotic cells.

Glioma stem cells = assay: Glioma stem cell viability, Cell Titer Glo; format: cell-based, human; conditions: 48 hours
Procedure: Glioma stem cells were incubated with various increasing concentrations of Compound 31 and the percentage of viable cells at 48 hours was quantified using Cell Titer Glo (Promega). […] For the functional assays described below, the IC10 was used to maintain at least 90% viability.

[1] = test system: Patient derived glioma stem cells (GSCs); assay: GSC invasion live imaging (Incucyte); format: cell-based, human; conditions: vs DMSO
Procedure: GSCs in Matrigel 3D matrix, were treated with 40 µM entacapone or DMSO (control) and live imaging was performed in regular time intervals using the Incucyte live cell imaging system. Normalized area of invasion was quantified following normalization of the invading area with the area occupied by the GSC sphere.
Patient derived glioma stem cells (GSCs) were incubated with 70 μM Compound 31 or DMSO (control) for 72 hours and GSC invasion into the surrounding extracellular matrix was quantified in real time using Incucyte Cell Imager. […] GSC invasion is one of the hallmarks of glioblastoma.

[2] = test system: diffuse intrinsic pontine glioma (DIPG) cells; assay: Limiting dilution assay (LDA), DIPG cell self-renewal; format: cell-based, human; conditions: clonal tumor spheres over 2 weeks
Procedure: A limiting dilution assay (LDA) was used to determine the effect of FTO inhibition with Compound 31 on the self-renewal ability of diffuse intrinsic pontine glioma (DIPG) cells—a type of brain tumor found in an area of the brainstem known as the pons. With this assay DIPG cells are plated on 96-well plates in various numbers (2000 cell per well down to 1 cell per well) and the ability of cells to self-renew and form clonal tumor spheres is measured over a period of 2 weeks.

[3] = test system: Patient derived DIPG cells; assay: DIPG cell invasion (Incucyte Cell Imager); format: cell-based, human; conditions: 10 μM, 72 hours, vs DMSO, p<0.05
Procedure: Patient derived DIPG cells were incubated with 10 μM Compound 31 or DMSO (control) for 72 hours and DIPG invasion into the surrounding extracellular matrix was quantified in real time using Incucyte Cell Imager.

Hela cells = conditions: cited from earlier work
GSC-grafted mice = conditions: cited from earlier work
[4] = test system: GSCs from two patients with glioblastoma; assay: In vitro extreme limiting dilution analysis (ELDA), GSC self-renewal; format: cell-based, human; conditions: 40 μM, 14 days, vs DMSO
Procedure: To examine whether treatment with Entacapone affects the ability of GSCs to self-renew, serial dilutions of GSCs were cultured from two patients with glioblastoma in the presence of 40 μM entacapone or DMSO (Control) for 14 days.

[5] = test system: cancer stem cell transcripts in GSCs; assay: qPCR array for 84 cancer stem cell markers in GSCs; format: cell-based, human; conditions: 40 µM, 48 hours
Procedure: GSCs were treated with 40 µM entacapone for 48 hours to assess whether entacapone would affect expression of stemness-related transcripts. A qPCR array for 84 validated cancer stem cell markers was performed (Qiagen-RT-profiler PCR arrays).

Notch1 = Notch1 inhibition assay (Western Blot in GSCs); format: cell-based, human; conditions: 40 µM, 48 hours, two GSC lines

Chain of FTO (Q9C0B1 whole entry, species assumed): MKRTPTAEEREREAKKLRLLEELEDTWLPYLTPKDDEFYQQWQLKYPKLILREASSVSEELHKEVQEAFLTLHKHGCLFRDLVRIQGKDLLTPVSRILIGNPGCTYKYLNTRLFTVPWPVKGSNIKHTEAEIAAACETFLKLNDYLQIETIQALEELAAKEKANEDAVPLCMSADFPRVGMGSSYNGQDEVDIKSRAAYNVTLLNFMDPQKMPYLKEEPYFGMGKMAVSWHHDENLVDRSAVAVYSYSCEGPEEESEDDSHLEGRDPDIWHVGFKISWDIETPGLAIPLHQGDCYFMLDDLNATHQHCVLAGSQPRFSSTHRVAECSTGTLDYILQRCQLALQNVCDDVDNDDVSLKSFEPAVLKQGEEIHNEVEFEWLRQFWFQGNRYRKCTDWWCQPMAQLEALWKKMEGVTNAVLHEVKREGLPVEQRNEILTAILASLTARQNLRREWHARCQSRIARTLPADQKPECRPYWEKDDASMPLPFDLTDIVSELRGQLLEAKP

CCN(CCN1CC(OC)C1)C(=O)/C(C#N)=C/c1cc(O)c(O)c([N+](=O)[O-])c1 [Compound 1]
FTO inhibitory activity compared to entacapone (FTO): significantly higher FTO inhibitory activity compared to entacapone
% FTO activity (FTO; 20 μM): 61%
inhibition at 20 µM (FTO; 20 μM): ≥ 40%
% FTO activity (FTO; 40 μM): 59%

CCN(CCSCCCF)C(=O)/C(C#N)=C/c1cc(O)c(O)c([N+](=O)[O-])c1 [Compound 31]
FTO inhibitory activity compared to entacapone (FTO): significantly higher FTO inhibitory activity compared to entacapone
% FTO activity (FTO; 20 μM): 54%
inhibition at 20 µM (FTO; 20 μM): ≥ 40%
% FTO activity (FTO; 40 μM): 48%
IC10, viable cells (Glioma stem cells): 70 µM
IC50 (Glioma stem cells; Homo sapiens, read-out: IC50, viable cells): 114 µM
GSC invasion into surrounding extracellular matrix ([1]; 70 μM, 72 hours, p<0.05): significant inhibition of GSC invasion
self-renewal ability of DIPG cells [2]: significantly inhibits the self-renewal ability of DIPG cells
DIPG invasion into surrounding extracellular matrix [3]: significant inhibition of DIPG invasion

C=CC(=O)Nc1ccc([N+](=O)[O-])cc1 [N-(4-nitrophenyl) acrylamide]
IC50 (Hela cells): 1 mM

CCOC(=O)c1ccccc1Nc1c(Cl)ccc(C)c1Cl [ethyl ester of meclofenamic acid]
lifespan (GSC-grafted mice): substantially prolong lifespan
tumor progression (GSC-grafted mice): suppress tumor progression

CCN(CC)C(=O)/C(C#N)=C/c1cc(O)c(O)c([N+](=O)[O-])c1 [Entacapone, entacapone, reference compound]
% FTO activity (FTO; 20 μM): 83%
inhibition at 20 µM (FTO; 20 μM): < 20%
% FTO activity (FTO; 40 μM): 61.5%^
FTO activity inhibition compared with 20 μM compound 31 (FTO; 40 μM): less FTO activity inhibition than 20 UM compound 31
normalized GSC invasion area ([1]; 40 µM, Matrigel 3D matrix, 66 hours): inhibits invasion of GSCs
tumor-sphere formation frequency of GSCs [4]: significantly decreased the tumor-sphere formation frequency
expression of cancer stem cell transcripts [5]: significant inhibition of several cancer stem cell transcripts
Notch1 protein expression (Notch1): induces inhibition of Notch1 protein expression
